# Results reported in ChEMBL document CHEMBL5030507, “Structure-Based Design of a Selective Class I Histone Deacetylase (HDAC) Near-Infrared (NIR) Probe for Epigenetic Regulation Detection in Triple-Negative Breast Cancer (TNBC)” (J Med Chem, 2021).
# How the values were obtained:
# Histone deacetylase 2 = Histone deacetylase 2 (Homo sapiens, UniProt Q92769); assay: biochemical; format: cell-based, Sf9
# Description: Inhibition of recombinant human full length C-terminal His- tagged HDAC2 (1 to 488 residues) expressed in Sf9 insect cells using fluorometric substrate measured after 60 mins by FRET assay
# Histone deacetylase 7 = target: T1, Histone deacetylase 7 (Homo sapiens, UniProt Q8WUI4); assay: Inhibition of recombinant human N-terminal GST-tagged HDAC7 expressed in baculovirus infected Sf9 insect cells using fluorogenic substrate measured after 60 mins by FRET assay
# T1 sequence (Q8WUI4 whole entry): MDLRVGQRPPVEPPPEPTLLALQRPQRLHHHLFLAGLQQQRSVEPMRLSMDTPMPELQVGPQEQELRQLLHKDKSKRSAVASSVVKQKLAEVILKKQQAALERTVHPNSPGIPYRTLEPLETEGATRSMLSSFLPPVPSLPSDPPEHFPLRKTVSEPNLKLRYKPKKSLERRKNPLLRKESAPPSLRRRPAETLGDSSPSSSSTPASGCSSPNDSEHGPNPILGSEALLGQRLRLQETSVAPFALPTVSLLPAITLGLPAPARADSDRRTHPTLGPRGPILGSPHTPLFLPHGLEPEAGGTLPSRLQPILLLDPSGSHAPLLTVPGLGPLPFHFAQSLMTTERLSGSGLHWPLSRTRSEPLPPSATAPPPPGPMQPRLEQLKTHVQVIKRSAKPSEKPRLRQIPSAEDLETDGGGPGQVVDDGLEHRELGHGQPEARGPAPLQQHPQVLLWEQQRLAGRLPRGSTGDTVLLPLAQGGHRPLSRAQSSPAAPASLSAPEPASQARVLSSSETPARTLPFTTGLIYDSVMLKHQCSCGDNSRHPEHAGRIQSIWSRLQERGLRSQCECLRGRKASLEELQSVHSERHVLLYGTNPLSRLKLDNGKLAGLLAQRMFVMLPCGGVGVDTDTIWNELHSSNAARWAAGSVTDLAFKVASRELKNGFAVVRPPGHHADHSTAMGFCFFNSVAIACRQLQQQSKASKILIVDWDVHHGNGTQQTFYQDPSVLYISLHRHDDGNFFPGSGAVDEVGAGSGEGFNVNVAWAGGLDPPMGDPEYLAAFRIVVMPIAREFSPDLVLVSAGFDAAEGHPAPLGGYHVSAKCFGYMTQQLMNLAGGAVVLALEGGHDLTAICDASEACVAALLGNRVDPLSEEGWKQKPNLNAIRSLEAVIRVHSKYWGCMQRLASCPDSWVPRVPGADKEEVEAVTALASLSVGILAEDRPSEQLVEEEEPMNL
# [1] = target: T2, Polyamine deacetylase HDAC10 (Homo sapiens, UniProt Q969S8); assay: Inhibition of recombinant human N-terminal FLAG tagged HDAC10 (2 to 631 residues) expressed in baculovirus infected Sf9 insect cells using fluorogenic substrate measured after 60 mins by FRET assay
# T2 sequence (Q969S8 whole entry): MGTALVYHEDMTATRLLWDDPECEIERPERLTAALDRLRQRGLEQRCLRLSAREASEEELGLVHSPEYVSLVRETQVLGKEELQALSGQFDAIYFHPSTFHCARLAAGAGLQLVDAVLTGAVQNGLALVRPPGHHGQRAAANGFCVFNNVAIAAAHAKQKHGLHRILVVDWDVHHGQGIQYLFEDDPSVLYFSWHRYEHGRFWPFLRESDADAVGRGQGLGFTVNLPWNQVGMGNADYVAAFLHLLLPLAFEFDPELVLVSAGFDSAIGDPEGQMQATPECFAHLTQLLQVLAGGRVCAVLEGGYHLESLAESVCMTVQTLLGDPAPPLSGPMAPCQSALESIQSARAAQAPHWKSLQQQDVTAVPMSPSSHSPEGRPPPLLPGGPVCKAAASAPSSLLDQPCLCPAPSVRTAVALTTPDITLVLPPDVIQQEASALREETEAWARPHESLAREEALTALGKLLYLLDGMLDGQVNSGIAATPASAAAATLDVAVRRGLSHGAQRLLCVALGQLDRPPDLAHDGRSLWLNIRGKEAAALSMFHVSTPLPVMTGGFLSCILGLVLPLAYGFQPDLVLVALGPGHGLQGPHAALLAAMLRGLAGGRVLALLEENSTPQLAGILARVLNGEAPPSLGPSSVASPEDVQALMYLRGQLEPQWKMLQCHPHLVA
# Sequence of Histone deacetylase 2 (Q92769 whole entry): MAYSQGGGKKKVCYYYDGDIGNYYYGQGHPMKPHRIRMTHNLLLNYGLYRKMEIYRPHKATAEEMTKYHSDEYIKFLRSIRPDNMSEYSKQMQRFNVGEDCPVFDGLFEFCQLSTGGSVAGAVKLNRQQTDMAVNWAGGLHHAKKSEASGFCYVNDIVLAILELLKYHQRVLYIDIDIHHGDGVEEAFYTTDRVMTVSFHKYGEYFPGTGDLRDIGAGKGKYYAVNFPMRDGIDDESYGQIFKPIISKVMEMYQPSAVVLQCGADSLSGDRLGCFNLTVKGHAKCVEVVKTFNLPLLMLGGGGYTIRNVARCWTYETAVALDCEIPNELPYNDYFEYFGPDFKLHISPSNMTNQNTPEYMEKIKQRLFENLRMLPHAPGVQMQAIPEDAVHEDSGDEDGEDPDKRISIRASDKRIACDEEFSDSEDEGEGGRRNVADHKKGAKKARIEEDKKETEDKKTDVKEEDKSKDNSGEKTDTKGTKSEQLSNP
smiles,measurement,setting,value
C/C=C1\NC(=O)c2csc(n2)CNC(=O)C[C@@H](/C=C/CCSSCCCCCCC)OC(=O)[C@H](CCCCN)NC1=O,IC50,Histone deacetylase 2,0.0075 µM
same,IC50,Histone deacetylase 7,> 10 µM
same,IC50,[1],> 10 µM
